“And” between values parts separate entries of the source, which are not always exact repeats. Equal values may be shown once. Read-outs that look alike come from different tables or passages of the source.
How the values were obtained:
[1] = target: histamine receptor H1 (Homo sapiens, UniProt P35367); experiment: Histamine H1 radioligand binding ([3H]Pyrilamine); settings: for inhibition at 1 µM: read-out: Histamine Binding (1 μM) H1, percent inhibition of specific binding, 1 μM
Procedure, shortened: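 Values are percent inhibition of specific [3H]pyrilamine (1.2 nM) binding with compounds at ≤1 μM (1% DMSO vehicle); 180 min incubation at 25 °C, pH 7.4 Tris buffer, on CHO-expressed human H1 receptor; 1 μM pyrilamine defined nonspecific binding, bound ligand counted after filtration.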

[2] = target: T1, human recombinant histamine H2 receptor (Homo sapiens, UniProt P25021); experiment: Histamine H2 radioligand binding ([125I]Aminopotentidine); settings: read-out: Histamine Binding (1 μM) H2, percent inhibition of specific binding, 1 μM
T1 construct: expressed in transfected cells; host or cells: Chinese hamster ovary (CHO) K1 cells
T1 sequence (P25021 whole entry): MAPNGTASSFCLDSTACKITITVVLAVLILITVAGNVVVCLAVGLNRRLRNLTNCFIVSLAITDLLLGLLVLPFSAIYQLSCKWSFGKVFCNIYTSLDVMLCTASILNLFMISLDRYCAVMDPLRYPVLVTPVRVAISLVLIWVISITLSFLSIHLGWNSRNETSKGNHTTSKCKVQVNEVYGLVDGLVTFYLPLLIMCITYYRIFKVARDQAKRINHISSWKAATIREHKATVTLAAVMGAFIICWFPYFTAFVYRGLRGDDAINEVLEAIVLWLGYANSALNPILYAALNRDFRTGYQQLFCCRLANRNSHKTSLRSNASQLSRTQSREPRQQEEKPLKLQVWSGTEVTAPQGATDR
Method: To evaluate in radioligand binding assays the activity of compounds of the invention, human recombinant histamine H2 receptor expressed in Chinese hamster ovary (CHO) K1 cells (Ruat, M., Proc. Natl. Acad. Sci. USA. 87(5):1658, 1990) in a 50 mM Phosphate buffer, pH 7.4 was used. Compounds of the invention were incubated with 0.1 nM [^125I]Aminopotentidine for 120 min. at 25° C. Non-specific binding was estimated in the presence of 3 μM Tiotidine. Receptor proteins were filtered and washed, the filters were then counted to determine [^125I]Aminopotentidine specifically bound.

[3] = target: human dopamine D2L receptor (Homo sapiens, UniProt P14416); experiment: Dopamine D2L radioligand binding ([3H]Spiperone); settings: compound at 1 μM
human dopamine D2L receptor, sequence (P14416 whole entry): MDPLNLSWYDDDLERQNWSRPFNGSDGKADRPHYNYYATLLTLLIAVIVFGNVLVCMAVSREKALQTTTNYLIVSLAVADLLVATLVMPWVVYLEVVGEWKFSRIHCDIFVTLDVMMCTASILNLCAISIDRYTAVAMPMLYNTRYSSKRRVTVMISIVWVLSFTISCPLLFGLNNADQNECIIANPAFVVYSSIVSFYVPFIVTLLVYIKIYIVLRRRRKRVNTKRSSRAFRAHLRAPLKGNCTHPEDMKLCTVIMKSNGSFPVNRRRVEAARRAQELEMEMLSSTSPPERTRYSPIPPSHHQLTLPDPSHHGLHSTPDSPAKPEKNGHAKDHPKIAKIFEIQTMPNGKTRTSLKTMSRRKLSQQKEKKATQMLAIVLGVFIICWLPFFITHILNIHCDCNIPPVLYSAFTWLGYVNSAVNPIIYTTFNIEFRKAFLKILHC
From the text: Non-specific binding was estimated in the presence of […] Haloperidol. Receptor proteins were filtered and washed, the filters were then counted to determine [^3H]Spiperone specifically bound. […] Biochemical assay results are presented as the percent inhibition of specific binding in Table 9.

[4] = target: T2, human recombinant serotonin (5-Hydroxytryptamine) 5-HT2A receptor (Homo sapiens, UniProt P28223); experiment: Serotonin 5-HT2A radioligand binding ([3H]Ketanserin); settings: for inhibition at 1 µM: read-out: Inhibition of ligand binding, Serotonin 5-HT2A (percent inhibition of specific binding), compound at 1 μM
T2 construct: expressed in transfected cells; host or cells: Chinese hamster ovary (CHO-K1) cells
T2 sequence (P28223 whole entry): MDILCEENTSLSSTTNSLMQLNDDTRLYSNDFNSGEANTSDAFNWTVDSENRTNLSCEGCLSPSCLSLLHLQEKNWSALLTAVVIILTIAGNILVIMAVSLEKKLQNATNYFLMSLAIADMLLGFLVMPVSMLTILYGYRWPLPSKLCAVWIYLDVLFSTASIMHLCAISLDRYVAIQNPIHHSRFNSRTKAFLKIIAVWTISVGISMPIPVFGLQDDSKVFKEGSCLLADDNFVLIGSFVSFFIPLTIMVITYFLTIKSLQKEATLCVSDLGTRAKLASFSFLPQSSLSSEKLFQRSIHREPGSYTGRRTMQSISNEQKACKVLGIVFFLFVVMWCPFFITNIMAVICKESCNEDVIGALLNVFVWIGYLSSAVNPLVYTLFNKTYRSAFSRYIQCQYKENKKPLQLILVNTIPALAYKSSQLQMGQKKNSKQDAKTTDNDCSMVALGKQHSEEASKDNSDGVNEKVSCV
Method: Compounds of the invention were incubated with 0.5 nM [^3H]Ketanserin for 60 min. at 25° C. Non-specific binding was estimated in the presence of 1 μM Mianserin. Receptor proteins were filtered and washed, the filters were then counted to determine [^3H]Ketanserin specifically bound.

[5] = target: T3, human recombinant serotonin (5-Hydroxytryptamine) 5-HT2C receptor (Homo sapiens, UniProt P28335); experiment: Serotonin 5-HT2C radioligand binding ([3H]Mesulergine); settings: read-out: Inhibition of ligand binding, Serotonin 5-HT2C (percent inhibition of specific binding); for inhibition at 1 µM: compound at 1 μM
T3 construct: expressed in transfected cells; host or cells: Chinese hamster ovary (CHO-K1) cells
T3 sequence (P28335 33-458): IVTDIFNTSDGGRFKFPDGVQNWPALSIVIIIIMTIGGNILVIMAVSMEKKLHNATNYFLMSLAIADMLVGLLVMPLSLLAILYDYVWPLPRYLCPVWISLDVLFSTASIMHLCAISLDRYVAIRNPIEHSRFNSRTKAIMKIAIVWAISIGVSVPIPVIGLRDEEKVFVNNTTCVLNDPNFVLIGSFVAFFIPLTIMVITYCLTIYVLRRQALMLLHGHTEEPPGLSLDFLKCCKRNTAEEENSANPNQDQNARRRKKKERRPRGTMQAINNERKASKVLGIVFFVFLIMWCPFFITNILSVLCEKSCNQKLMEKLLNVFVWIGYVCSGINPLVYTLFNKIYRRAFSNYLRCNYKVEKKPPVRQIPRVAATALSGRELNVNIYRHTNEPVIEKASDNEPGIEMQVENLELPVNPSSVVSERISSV
Procedure, shortened: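 Compounds tested at 1 μM or lower (1% DMSO vehicle) for displacement of 1 nM [3H]Mesulergine over 60 min at 25° C. Specific binding determined by filtration counting, with 1 μM Mianserin defining non-specific binding; values are percent inhibition.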

[6] = target: T4, human recombinant serotonin (5-Hydroxytryptamine) 5-HT6 receptor (Homo sapiens, UniProt P50406); experiment: Serotonin 5-HT6 radioligand binding ([3H]LSD); settings: read-out: Inhibition of ligand binding, Serotonin 5-HT6 (percent inhibition of specific binding); for inhibition at 1 µM: compound at 1 μM
T4 construct: expressed in transfected cells; host or cells: human HeLa cells
T4 sequence (P50406 whole entry): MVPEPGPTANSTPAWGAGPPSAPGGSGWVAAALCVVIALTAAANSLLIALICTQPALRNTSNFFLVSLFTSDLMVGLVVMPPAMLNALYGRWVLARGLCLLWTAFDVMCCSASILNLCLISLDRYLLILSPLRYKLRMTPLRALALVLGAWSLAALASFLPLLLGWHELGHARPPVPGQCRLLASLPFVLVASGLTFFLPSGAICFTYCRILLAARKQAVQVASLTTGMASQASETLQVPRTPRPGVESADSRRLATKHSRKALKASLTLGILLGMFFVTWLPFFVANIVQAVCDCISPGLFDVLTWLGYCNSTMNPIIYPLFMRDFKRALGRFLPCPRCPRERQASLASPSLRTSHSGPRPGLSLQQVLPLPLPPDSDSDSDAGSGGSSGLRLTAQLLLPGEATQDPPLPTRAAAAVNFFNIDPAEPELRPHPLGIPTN
Method: Compounds of the invention were incubated with 1.5 nM [3H]Lysergic acid diethylamide (LSD) for 120 min. at 37° C. […] Receptor proteins were filtered and washed, the filters were then counted to determine [3H]LSD specifically bound. Compounds were screened at 1 μM or lower, using 1% DMSO as vehicle. Biochemical assay results are presented as the percent inhibition of specific binding in Table 10.

[7] = target: human recombinant serotonin (5-Hydroxytryptamine) 5-HT7 receptor (Homo sapiens, UniProt P34969); experiment: Serotonin 5-HT7 radioligand binding ([3H]LSD); settings: compound at 1 μM; read-out: Inhibition of ligand binding, Serotonin 5-HT7 (percent inhibition of specific binding)
human recombinant serotonin (5-Hydroxytryptamine) 5-HT7 receptor, sequence (P34969 whole entry): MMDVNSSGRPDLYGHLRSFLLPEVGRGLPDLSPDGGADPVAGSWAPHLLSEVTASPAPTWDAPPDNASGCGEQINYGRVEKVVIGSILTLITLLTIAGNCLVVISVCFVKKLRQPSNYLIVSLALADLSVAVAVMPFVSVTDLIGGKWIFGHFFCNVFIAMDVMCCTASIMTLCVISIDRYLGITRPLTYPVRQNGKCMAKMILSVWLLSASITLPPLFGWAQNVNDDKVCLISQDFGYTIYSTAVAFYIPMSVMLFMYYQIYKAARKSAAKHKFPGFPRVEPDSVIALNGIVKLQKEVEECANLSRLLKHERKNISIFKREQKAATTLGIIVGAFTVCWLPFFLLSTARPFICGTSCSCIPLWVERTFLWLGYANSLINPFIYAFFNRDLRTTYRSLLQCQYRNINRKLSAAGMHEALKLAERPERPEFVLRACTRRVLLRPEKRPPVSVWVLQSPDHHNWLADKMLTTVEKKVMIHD
From the text: Receptor proteins were filtered and washed, the filters were then counted to determine [^3H]LSD specifically bound.

[8] = percent inhibition of specific binding, read-out: Inhibition of ligand binding, Dopamine D2L
[9] = […] [3H]Spiperone, read-out: Inhibition of ligand binding, Dopamine D2L (percent inhibition of specific binding)

histamine receptor H1, sequence (P35367 whole entry): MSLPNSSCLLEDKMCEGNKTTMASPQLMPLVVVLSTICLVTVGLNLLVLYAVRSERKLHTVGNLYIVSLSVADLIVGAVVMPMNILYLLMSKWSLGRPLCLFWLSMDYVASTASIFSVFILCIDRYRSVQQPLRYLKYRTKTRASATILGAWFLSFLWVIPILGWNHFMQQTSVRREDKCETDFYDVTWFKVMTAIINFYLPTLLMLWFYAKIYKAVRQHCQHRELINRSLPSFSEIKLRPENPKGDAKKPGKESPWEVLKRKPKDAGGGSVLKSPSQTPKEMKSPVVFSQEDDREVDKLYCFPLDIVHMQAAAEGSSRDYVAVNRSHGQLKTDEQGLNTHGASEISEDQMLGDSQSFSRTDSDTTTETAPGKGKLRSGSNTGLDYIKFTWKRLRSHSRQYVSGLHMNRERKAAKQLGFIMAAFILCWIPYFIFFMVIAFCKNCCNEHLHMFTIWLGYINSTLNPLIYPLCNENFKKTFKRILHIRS

COc1ccc(/C(C)=C/n2c3c(c4cc(C)ccc42)CN(C)CC3)cc1F [Compound 214, (E)-5-(2-(3-fluoro-4-methoxyphenyl)prop-1-enyl)-2,8-dimethyl-2,3,4,5-tetrahydro-1H-pyrido[4,3-b]indole]
inhibition at 1 µM [1]: 23%
inhibition at 1 µM [2]: 100%
inhibition at 1 µM [3, 8]: 83%
inhibition at 1 µM [4]: 93%
inhibition at 1 µM [5]: 95%
inhibition at 1 µM [6]: 94%
inhibition at 1 µM [7]: 97%

C/C(=C\n1c2c(c3cc(C)ccc31)CN(C)CC2)c1ccc(O)cc1 [Compound 235, (E)-4-(1-(2,8-dimethyl-3,4-dihydro-1H-pyrido[4,3-b]indol-5(2H)-yl)prop-1-en-2-yl)phenol]
inhibition at 1 µM [1]: 73%
inhibition at 1 µM [2]: 96%
inhibition at 1 µM [3, 8]: 80%
inhibition at 1 µM [4]: 98%
inhibition at 1 µM [5]: 101%
inhibition at 1 µM [6]: 99%
inhibition at 1 µM [7]: 96%

CN1CCc2c(c3ccc(Cl)cc3n2CC(C)(O)c2ccncc2)C1 (stereo not drawn) [Compound 184, 1-(7-chloro-2-methyl-3,4-dihydro-1H-pyrido[4,3-b]indol-5(2H)-yl)-2-(pyridin-4-yl)propan-2-ol]
inhibition at 1 µM [1]: 23%
inhibition at 1 µM [2]: 57%
inhibition at 1 µM [3, 8]: 1%
inhibition at 1 µM [4]: 82%
inhibition at 1 µM [5]: 65%
inhibition at 1 µM [6]: 31%
inhibition at 1 µM [7]: 48%

C/C(=C\n1c2c(c3cc(Cl)c(Cl)cc31)CN(C)CC2)c1ccncc1 [Compound 243, (E)-7,8-dichloro-2-methyl-5-(2-(pyridin-4-yl)prop-1-enyl)-2,3,4,5-tetrahydro-1H-pyrido[4,3-b]indole]
inhibition at 1 µM [1]: 95%
inhibition at 1 µM [2]: 90%
inhibition at 1 µM [3, 8]: 96%
inhibition at 1 µM [4]: 100%
inhibition at 1 µM [5]: 99%
inhibition at 1 µM [6]: 107%
inhibition at 1 µM [7]: 97%

C=C(Cn1c2c(c3cc(C)ccc31)CN(C)CC2)c1ccc(O)cc1 [Compound No. 355, 4-(3-(2,8-dimethyl-3,4-dihydro-1H-pyrido[4,3-b]indol-5(2H)-yl)prop-1-en-2-yl)phenol]
inhibition at 1 µM [1]: 116%
inhibition at 1 µM [2]: 93%
inhibition at 1 µM [3, 9]: 81%
inhibition at 1 µM [4]: 92%
inhibition at 1 µM [5]: 99%
inhibition at 1 µM [6]: 101%
inhibition at 1 µM [7]: 92%

C/C(=C\n1c2c(c3ccc(Cl)cc31)CN(C)CC2)c1ccc(F)cc1 [Compound 228, (E)-7-chloro-5-(2-(4-fluorophenyl)prop-1-enyl)-2-methyl-2,3,4,5-tetrahydro-1H-pyrido[4,3-b]indole]
inhibition at 1 µM [1]: 66%
inhibition at 1 µM [2]: 102%
inhibition at 1 µM [3, 8]: 98%
inhibition at 1 µM [4]: 101%
inhibition at 1 µM [5]: 97%
inhibition at 1 µM [6]: 106%
inhibition at 1 µM [7]: 97%

C/C(=C\n1c2c(c3cc(C)ccc31)CN(C)CC2)c1cc(Cl)cc(Cl)c1 [Compound 218, (E)-5-(2-(3,5-dichlorophenyl)prop-1-enyl)-2,8-dimethyl-2,3,4,5-tetrahydro-1H-pyrido[4,3-b]indole]
Histamine Binding (1 μM) H1, percent inhibition of specific binding ([1]; 1 μM): 78% and 79%
inhibition at 1 µM [2]: 98%
Inhibition of ligand binding, Dopamine D2L ([3]; percent inhibition of specific binding, 1 µM): 43%
inhibition at 1 µM [3, 8]: 40%
inhibition at 0.1 µM ([4]; read-out: Inhibition of ligand binding, Serotonin 5-HT2A (percent inhibition of specific binding), compound at 0.1 μM): 94%
inhibition at 1 µM [4]: 99%
inhibition at 0.1 µM ([5]; compound at 0.1 μM): 92%
inhibition at 1 µM [5]: 96%
inhibition at 0.1 µM ([6]; compound at 0.1 μM): 85%
inhibition at 1 µM [6]: 99%
inhibition at 1 µM [7]: 93%

C/C(=C\n1c2c(c3cc(C)ccc31)CN(C)CC2)c1cc(F)c(F)cc1Cl [Compound 221, (E)-5-(2-(2-chloro-4,5-difluorophenyl)prop-1-enyl)-2,8-dimethyl-2,3,4,5-tetrahydro-1H-pyrido[4,3-b]indole]
inhibition at 1 µM [1]: 90%
inhibition at 1 µM [2]: 98%
inhibition at 1 µM [3, 8]: 34%
inhibition at 1 µM [4]: 97%
inhibition at 1 µM [5]: 99%
inhibition at 1 µM [6]: 95%
inhibition at 1 µM [7]: 93%

C=C(Cn1c2c(c3cccc(Cl)c31)CN(C)CC2)c1ccc(F)cc1 [Compound No. 354, 6-chloro-5-(2-(4-fluorophenyl)allyl)-2-methyl-2,3,4,5-tetrahydro-1H-pyrido[4,3-b]indole]
inhibition at 1 µM [1]: 86%
inhibition at 1 µM [2]: 97%
inhibition at 1 µM [3, 9]: 98%
inhibition at 1 µM [4]: 100%
inhibition at 1 µM [5]: 101%
inhibition at 1 µM [6]: 103%
inhibition at 1 µM [7]: 75%

CN1CCc2c(c3cc(Cl)c(Cl)cc3n2CC(C)(O)c2ccncc2)C1 (stereo not drawn) [Compound 189, 1-(7,8-dichloro-2-methyl-3,4-dihydro-1H-pyrido[4,3-b]indol-5(2H)-yl)-2-(pyridin-4-yl)propan-2-ol]
inhibition at 1 µM [1]: 77%
inhibition at 1 µM [2]: 85%
inhibition at 1 µM [3, 8]: 2%
inhibition at 1 µM [4]: 96%
inhibition at 1 µM [5]: 91%
inhibition at 1 µM [6]: 87%
inhibition at 1 µM [7]: 82%

COc1ccc2c(c1)c1c(n2/C=C(\C)c2ccncc2)CCN(C)C1 [Compound 246, (E)-8-methoxy-2-methyl-5-(2-(pyridin-4-yl)prop-1-enyl)-2,3,4,5-tetrahydro-1H-pyrido[4,3-b]indole]
inhibition at 1 µM [1]: 7%
inhibition at 1 µM [2]: 29%
inhibition at 1 µM [3, 8]: 57%
inhibition at 1 µM [4]: 97%
inhibition at 1 µM [5]: 94%
inhibition at 1 µM [6]: 104%
inhibition at 1 µM [7]: 88%

C/C(=C/n1c2c(c3cc(Cl)ccc31)CN(C)CC2)c1cccc(F)c1 [Compound 233, (Z)-8-chloro-5-(2-(3-fluorophenyl)prop-1-enyl)-2-methyl-2,3,4,5-tetrahydro-1H-pyrido[4,3-b]indole]
inhibition at 1 µM [1]: 85%
inhibition at 1 µM [2]: 99%
inhibition at 1 µM [3, 8]: 48%
inhibition at 1 µM [4]: 97%
inhibition at 1 µM [5]: 101%
inhibition at 1 µM [6]: 102%
inhibition at 1 µM [7]: 95%

Cc1ccc(C#Cn2c3c(c4cc(Cl)ccc42)CN(C)CC3)cn1 [Compound No. 484, 8-chloro-2-methyl-5-((6-methylpyridin-3-yl)ethynyl)-2,3,4,5-tetrahydro-1H-pyrido[4,3-b]indole]
inhibition at 1 µM [1]: 6%
inhibition at 1 µM [2]: 77%
inhibition at 1 µM [3, 9]: -4%
inhibition at 1 µM [4]: 98%
inhibition at 1 µM [5]: 95%
inhibition at 1 µM [6]: 34%
inhibition at 1 µM [7]: 83%

CN1CCc2c(c3cc(F)ccc3n2CC(C)(O)c2ccncc2)C1 (stereo not drawn) [Compound 181, 1-(8-fluoro-2-methyl-3,4-dihydro-1H-pyrido[4,3-b]indol-5(2H)-yl)-2-(pyridin-4-yl)propan-2-ol]
inhibition at 1 µM [1]: 0%
inhibition at 1 µM [2]: 25%
inhibition at 1 µM [3, 8]: 8%
inhibition at 1 µM [4]: 77%
inhibition at 1 µM [5]: 80%
inhibition at 1 µM [6]: 32%
inhibition at 1 µM [7]: 30%

Reference: patent publication US8906925B2, “Pyrido[4,3-B]indoles containing rigid moieties” (Medivation Technologies, Inc., priority 2008, dated 2014)
